The results in this text go back to patent US20260223850A1, “SUBSTITUTED PYRROLIDONE COMPOUND, PREPARATION METHOD THEREFOR, COMPOSITION AND APPLICATION THEREOF” (QINGDAO KINGAGROOT CHEMICAL COMPOUND CO., LTD., priority 2023, published 2026).

Experiment [1] deals with weeds. Briefly: Activity assay of compositions, soil sealing treatment (S). The settings on record: for pest or weed control at 7.5 g/ha / pest or weed control at 15 g/ha / pest or weed control at 30 g/ha / pest or weed control at 60 g/ha / pest or weed control at 150 g/ha / pest or weed control at 300 g/ha / pest or weed control at 75 g/ha: soil, read-out: Control effect of B applied alone in a corresponding dose (%); for pest or weed control at 300 g/ha: B 300 g a.i./ha. The format is in vivo. An excerpt: (§1) The required active ingredient B was purchased from a reagent company or a technical material manufacturer or synthesized by a conventional method. The technical materials were all dissolved with acetone solvents and diluted with aqueous solution of 0.1% Tween® 80 emulsifier, which should be used immediately after dilution.
The test soil was quantitatively filled to ¾ of a pot, and then watered from the bottom of the pot to completely wet the soil to saturation. The seeds of the test weeds were accelerated to Just germinate, and then evenly and quantitatively broadcasted on the soil surface, covered with 0.5-1 cm soil according to the sizes of the seeds, and ready for use 72 hours after broadcasting.
Each treatment was repeated 4 times. Four pots were treated each time with 20 weed seeds per pot.
The seeds were planted in a 20 cm*30 cm square box. Water was added to 2-3 cm deep after sowing, then injected with the drug agent using a syringe, stirred evenly, and left to stand for 2 days to dry naturally. The soil was kept moist afterwards.
(§2) A method for investigating absolute numbers was employed. The whole seedlings of the survival weeds were cut along the soil surface with a blade, and the fresh weight of the weeds was weighed by an analytical balance. For dead weeds, the fresh weight thereof was considered zero.
(§3) The investigation was performed 21 days after the treatment for once in total.
(§4) The theoretical fresh weight inhibition rate of a mixed combination of each treatment was calculated by the Gowing method (E0═X+Y−X*Y/100), then compared with the measured inhibition rate (E) to evaluate the type of the combined action of the combination of the two on weeds. The combined action was a synergistic effect when E−E0 >10%; an antagonistic effect when E−E0<−10%; an additional effect when −10%≤E−E0≤10%. An optimal ratio was determined according to factors such as actual control effects, characteristics of herbicides, balance of the formulation, etc.

For experiment [2], the system named is weeds. Briefly: Activity assay of compositions, post-emergence spray treatment of stems and leaves (F). Format: in vivo. As to conditions: F. Here is the method: as §1
Weeds were cultivated by the pot culture method. […] Weed seeds with plump and uniform grains were selected, soaked in lukewarm water at 25° C. for 6 hours, and accelerated to germinate in a 28° C. biochemical incubator (in darkness). The weed seeds that had just germinated were evenly placed on the surface of the soil and then covered with 0.5-1 cm soil according to the sizes of seeds.
The weeds were cultured in a controllable sunlight greenhouse at 20-30° C., in natural light and with relative humidity of 57%-72%.
Each treatment was repeated 4 times. Three pots with 20 weed seeds sowed per pot were treated each time.
The drug was applied once in total in the experiment. When at 1.5-2 leaf stage, the weeds were thinned out to maintain 10 strains per pot. Thirty strains were kept in each treatment and then continued to be cultured until the 3-4 leaf stage for further treatment.
The well-cultured test materials were evenly placed on a 0.5 m^2 platform and foliage-sprayed by the 3WP-2000-type walking spray tower at a dosage of […] and a spray pressure of 0.3 MPa. After all the drug solution was sprayed, the air valve was closed. And 30 seconds later, the door of the spray tower was opened, and the nutritional bowl was taken out. Next, the air valve was opened, and the spray tube was cleaned by spraying 50 mL of water. The test materials were transferred to and routinely cultured in a greenhouse after the treatment.
as §2, §3
as §4, with “etc. In the formula, X represents the fresh weight inhibition rate of the active ingredient A in a dosage of P; Y represents the fresh weight inhibition rate of the active ingredient B in a dosage of Q. The statistical results are shown in Table 6.” for “etc.”

Setting [3] is: Rotala indica, S, B 7.5 g a.i./ha.
[4] abbreviates: Rotala indica, S, B 15 g a.i./ha.
Setting [5] is: Rotala indica, S, B 30 g a.i./ha.
Where [6] appears, read: Alisma plantago-aquatica, B 30 g a.i./ha.
The mark [7] stands for this setting: Alisma plantago-aquatica, B 60 g a.i./ha.
The mark [8] stands for this setting: Paspalum distichum, S, B 30 g a.i./ha.
The mark [9] stands for this setting: Paspalum distichum, S, B 60 g a.i./ha.
Where [10] appears, read: Paspalum distichum, S, B 7.5 g a.i./ha.
[11] abbreviates: Paspalum distichum, S, B 15 g a.i./ha.
The mark [12] stands for this setting: Rotala indica, S, B 150 g a.i./ha.
Where [13] appears, read: Alisma plantago-aquatica, S, B 3.75 g a.i./ha.
The mark [14] stands for this setting: Alisma plantago-aquatica, S, B 7.5 g a.i./ha.
The mark [15] stands for this setting: Rotala indica, S, B 60 g a.i./ha.

Where two headings read alike, the source gives them in different places.

As for `CCc1ccc(-n2cnc(C(F)(F)F)n2)nc1Oc1cccc(C(F)(F)F)c1`, the pest or weed control at 7.5 g/ha in the experiment on weeds [1] (setting [3]) was determined as 47.1%. Moreover, the pest or weed control at 15 g/ha in the experiment with weeds [1] (setting [4]) worked out at 63.6%.
With `CCC[S@@+]([O-])c1c(C(F)(F)F)ccc(C(=O)Nc2nnc(C)o2)c1F`, the pest or weed control at 15 g/ha with weeds [1] (setting [4]) came out at 35.8%. Besides, the pest or weed control at 30 g/ha with weeds [1] (setting [5]) was 46.6%.
On to `COC(=O)[C@@H](C)O/N=C/c1cc(-n2c(=O)cc(C(F)(F)F)n(C)c2=O)c(F)cc1Cl`, for which, in the experiment with weeds [1] (setting [3]), the pest or weed control at 7.5 g/ha turned out to be 47.9%. Besides, in the experiment with weeds [1] (setting [4]), the pest or weed control at 15 g/ha came to 56.6%.
As to `COCCOC(=O)c1nc(-c2ccc(C(F)(F)F)c(OC)c2F)nc(N)c1OC`, the “Control effect of B applied alone in a corresponding dose (%)” value (“Control effect of B applied alone … (%)” below) in the experiment on weeds [2] (Alisma plantago-aquatica, B 3.75 g a.i./ha) worked out at 43.5%; in the experiment on weeds [2] (Alisma plantago-aquatica, B 7.5 g a.i./ha), 57.2%.
On to `C[C@@H](Oc1nc(F)c(Cl)c(N)c1Cl)C(=O)OCC1CCCO1` (stereo partly shown), for which the “Control effect of B applied alone … (%)” value came to 38.7% in the experiment with weeds [2] (setting [6]) and 45.6% in the experiment on weeds [2] (setting [7]).
Turning to `CC1(C)CON(Cc2ccc(Cl)cc2Br)C1=O`, in the experiment with weeds [1] (setting [8]), the pest or weed control at 30 g/ha was determined as 37.8%. Further, the pest or weed control at 60 g/ha with weeds [1] (setting [9]) was determined as 51.3%.
Take `CC(C)C12CCC(C)(O1)C(OCc1c(F)cccc1Br)C2` (stereo not shown): the pest or weed control at 7.5 g/ha in the experiment on weeds [1] (setting [10]) was found to be 46.3%. Besides, the pest or weed control at 15 g/ha in the experiment with weeds [1] (setting [11]) is 57.4%.
For `Cc1ccccc1CO[C@@H]1C[C@@]2(C(C)C)CC[C@]1(C)O2` (racemic) [Cinmethylin, cinmethylin] the same measures were 34.8% and 47.6%.
On to `CCOCN(C(=O)CCl)c1c(C)cccc1CC` [Acetochlor, acetochlor], for which the pest or weed control at 150 g/ha in the experiment on weeds [1] (setting [12]) was 46.2%. In the experiment on weeds [1] (Rotala indica, S), the pest or weed control at 300 g/ha came out at 66.5%.
As to `COP(=S)(OC)SCC(=O)N(c1ccc(Cl)cc1)C(C)(C)C` [Anilofos, anilofos], in the experiment on weeds [1] (Rotala indica), the pest or weed control at 75 g/ha turned out to be 22.4% and the pest or weed control at 150 g/ha is 31.8%.
For the compound `CC(C)N1C(=O)c2ccccc2NS1(=O)=O` [Bentazone, bentazone, reference compound], the “Control effect of B applied alone … (%)” value with weeds [2] (Paspalum distichum, B 375 g a.i./ha) is given as 29.2%; in the experiment with weeds [2] (Paspalum distichum, B 750 g a.i./ha), 36.7%.
Regarding `CS(=O)(=O)c1ccc(C(=O)C2=C(Sc3ccccc3)C3CCC(C3)C2=O)c(Cl)c1` (stereo not shown) [Benzobicyclon, benzobicyclon], the “Control effect of B applied alone … (%)” value with weeds [1] (setting [4]) was determined as 32.8%; in the experiment on weeds [1] (setting [5]) it was 49.6%.
For `Cc1nn(C)cc1C(=O)Oc1c(C(=O)c2ccc(C(F)(F)F)cc2S(C)(=O)=O)c(C)nn1C` [Bipyrazone, bipyrazone] the same measures were 24.5% and 38.8%.
`CC1(C)CON(Cc2ccc(Cl)cc2Cl)C1=O` [Bixlozone, bixlozone]: the “Control effect of B applied alone … (%)” value is on record as 41.7% in the experiment on weeds [1] (setting [8]) and 52.8% in the experiment on weeds [1] (setting [9]).
Regarding `CCCCOCN(C(=O)CCl)c1c(CC)cccc1CC` [Butachlor, butachlor], in the experiment on weeds [1] (setting [12]), the pest or weed control at 150 g/ha was 42.4%. For the same compound, the pest or weed control at 300 g/ha with weeds [1] (Rotala indica, S) was 58.6%.
Consider `CC1(C)CON(Cc2ccccc2Cl)C1=O` [Clomazone, clomazone], for which the pest or weed control at 30 g/ha in the experiment on weeds [1] (setting [8]) was 44.3%. In the experiment with weeds [1] (setting [9]), the pest or weed control at 60 g/ha amounted to 51.5%.
Regarding `COc1c(Cl)ccc(-c2nc(C(=O)OCc3ccccc3)c(Cl)c(N)c2F)c1F` [Florpyrauxifen-benzyl, florpyrauxifen-benzyl], the “Control effect of B applied alone … (%)” value with weeds [1] (setting [13]) is recorded as 62.8%; in the experiment with weeds [1] (setting [14]) it was 74.6%.
`Nc1c(Cl)c(F)nc(OCC(=O)O)c1Cl` [Fluroxypyr, fluroxypyr, reference compound]: the “Control effect of B applied alone … (%)” value came to 52.5% with weeds [2] (setting [6]) and 65.8% with weeds [2] (setting [7]).
Regarding `COC(=O)c1nc(-c2ccc(Cl)c(OC)c2F)cc(N)c1Cl` [Halauxifen-methyl, halauxifen-methyl], the results for the “Control effect of B applied alone … (%)” value with weeds [1] (setting [13]) and in the experiment on weeds [1] (setting [14]) were 58.4% and 68.9%, respectively.
On to `CN(C(=O)COc1nc2ccccc2s1)c1ccccc1` [Mefenacet, mefenacet], for which the pest or weed control at 150 g/ha in the experiment with weeds [1] (setting [12]) is 38.4%. The pest or weed control at 300 g/ha with weeds [1] (Rotala indica, S) amounted to 58.3%.
Regarding `CC(C)Oc1cc(-n2nc(C(C)(C)C)oc2=O)c(Cl)cc1Cl` [Oxadiazon, oxadiazon], the pest or weed control at 30 g/ha in the experiment on weeds [1] (setting [5]) amounted to 50.5%. For the same compound, in the experiment with weeds [1] (setting [15]), the pest or weed control at 60 g/ha was 68.7%.
Take `CC1=C(c2ccccc2)C(=O)N(C(C)(C)c2cc(Cl)cc(Cl)c2)CO1` [Oxaziclomefone, oxaziclomefone]: the pest or weed control at 7.5 g/ha in the experiment with weeds [1] (setting [10]) was determined as 36.9%. Further, the pest or weed control at 15 g/ha with weeds [1] (setting [11]) is 48.5%.
Regarding `CCOc1cc(Oc2ccc(C(F)(F)F)cc2Cl)ccc1[N+](=O)[O-]` [Oxyfluorfen, oxyfluorfen], the pest or weed control at 7.5 g/ha in the experiment with weeds [1] (setting [3]) stood at 51%. Also, the pest or weed control at 15 g/ha with weeds [1] (setting [4]) is 69.3%.
As for `CC(C)=C1OC(=O)N(c2cc(OC3CCCC3)c(Cl)cc2F)C1=O` [Pentoxazone, pentoxazone], in the experiment with weeds [1] (Rotala indica), the pest or weed control at 30 g/ha was determined as 55.3% and the pest or weed control at 60 g/ha is 62.7%.
As to `CCCOCCN(C(=O)CCl)c1c(CC)cccc1CC` [Pretilachlor, pretilachlor], the pest or weed control at 75 g/ha with weeds [1] (Rotala indica, S, B 75 g a.i./ha) was found to be 54.2%. In addition, in the experiment on weeds [1] (setting [12]), the pest or weed control at 150 g/ha stood at 63.9%.
`C#CCN(C)c1c(C#N)cnn1-c1nn2c(c1Cl)CCCC2` [Pyraclonil, pyraclonil]: the “Control effect of B applied alone … (%)” value in the experiment on weeds [1] (setting [5]) amounted to 48.2%; in the experiment on weeds [1] (setting [15]), 63.4%.
With `CCNc1nc(NCC)nc(SC)n1` [Simetryn, simetryn], in the experiment with weeds [1] (Paspalum distichum), the pest or weed control at 75 g/ha was 45.5% and the pest or weed control at 150 g/ha stood at 54.8%.
For the compound `CS(=O)(=O)c1ccc(C(=O)C2C(=O)CCCC2=O)c(Cl)c1COCC1CCCO1` (stereo not shown) [Tefuryltrione, tefuryltrione], the “Control effect of B applied alone … (%)” value in the experiment with weeds [1] (setting [4]) is 30.8%; in the experiment with weeds [1] (setting [5]), 45.2%.
Take oxadiargyl: the “Control effect of B applied alone … (%)” value with weeds [1] (setting [3]) is listed as 47.2%; in the experiment on weeds [1] (setting [4]) it was 58.6%.
